The source made the active and inactive calls.
Columns and labels:
Type in all cases: functional, cell-based
NCI-H460 = assay: Cytotoxicity against human NCI-H460 cells upto 10 ug/mL by MTT assay
MCF7 = assay: Cytotoxicity against human MCF7 cells upto 10 ug/mL by MTT assay
SF-268 = assay: Cytotoxicity against human SF268 cells upto 10 ug/mL by MTT assay

Measured: Activity

C[C@H]1CCCCCC(=O)c2c(cc(O)cc2O[C@@H]2O[C@H](CO)[C@@H](O)[C@H](O)[C@H]2O)CC(=O)O1
inactive: all assays above

CO[C@H]1[C@H](O)[C@@H](O)[C@H](Oc2cc(O)cc3c2C(=O)CCCCC[C@H](C)OC(=O)C3)O[C@@H]1CO
inactive: all assays above

CO[C@H]1[C@H](O)[C@@H](O)[C@H](Oc2c(O)cc3c(c2O)C(=O)CCCCC[C@H](C)OC(=O)C3)O[C@@H]1CO
inactive: all assays above
